# From patent publication US20240317748A1, “CARBONYL SUBSTITUTED DIAZASPIRO COMPOUNDS AND ITS USE” (BIONOVA PHARMACEUTICALS (SHANGHAI) LIMITED, priority 2021, published 2024)
# Experiments:
# MV-4-11 cells = assay: Cell proliferation assay (CellTiter-Glo), MV-4-11; type: cell-based, human; settings: Homo sapiens, MV4-11, 96 h; MV-4-11 (MLL-AF4), 4 days incubation; read-out: Cell antiproliferation assay MV-4-11 IC50
# Method: (§1) The antiproliferative activity of test compounds was assessed in human leukemia cell lines. The cell line MV4-11, MOLM13 and OCI-AML3, which expresses the MLL fusion protein MLL-AF4, MLL-AF9 and carry the NPM1c gene mutation, respectively, were tested. HL-60 was used as a control cell line containing two MLL wildtype alleles in order to exclude compounds that display general cytotoxic effect. MV4-11 cells were cultured in IMDM supplemented with 10% FBS, MOLM13 and OCI-AML3 cells were cultured in RPMI1640 supplemented with 20% FBS, and HL-60 cells were cultured in IMDM supplemented with 20% FBS. Corresponding cells (MV4-11, MOLM13, OCI-AML3 or HL-60 cell line) were seeded in 100 uL medium per well in 96-well plate (white wall with clear bottom, tissue culture treated, Corning, Cat. No. CLS3903; Lot.No. 30419025). Plates were placed in the CO2 incubator overnight. Compounds solution (2 mM starting, 4-fold serial dilution) were prepared and added to the wells containing 100 μL of the culture medium with HPD300 according to the plate map and centrifuge at 1000 rpm for 1 minutes (200-fold dilution totally). MV4-11, MOLM13, OCI-AML3 and HL-60 cells were incubated with the compounds for 4, 12, 5 and 4 days, respectively, under 5% CO2 at 37° C., respectively. 100 μL of CellTiter-Glo reagent (Promega, Cat. No. G7573, Lot. No. 0000416710) was added to the assay plate by Multidrop Combi instrument, contents were mixed for 10 minutes on an orbital shaker to induce cell lysis. After incubation at room temperature for 10 mins, clear bottom with white back seal was pasted and luminescence with Envision was read.
# [1] = Liver microsome stability study; type: in vitro ADME; settings: human liver microsomes 0.5 mg/mL, 1 μM compound, NADPH, 37° C.; read-out: Human liver microsome T1/2
# Method: Studies were carried out in liver microsomes (Corning, 0.5 mg/mL). Stock solutions were prepared at 10 mM in DMSO for the test compounds. Aliquots of the stock solutions were diluted to 0.5 mM with acetonitrile, and then further diluted upon the addition of liver microsomes/buffer to 1.5 μM. An aliquot of 30 μL of 1.5 μM solutions was mixed with 15 μL of 6 mM NADPH and the final concentration of NADPH was 2 mM, which had been pre-warmed to 37° C. Test compounds and Ketanserin final concentrations were 1 μM. The plates were kept in a 37° C. water bath for the duration of the experiment. At each time point (0, 5, 15, 30, 45 minutes), 135 μL of acetonitrile was added into corresponding wells. After the final time point was quenched by acetonitrile, the assay plates were shaken at the vibrator (IKA, MTS 2/4) for 10 min (600 rpm/min) and then centrifuged at 5,594 g for 15 min (Thermo Multifuge×3R). Aliquots of the supernatant were taken, diluted 1:1 into distilled water, and analyzed by LC-MS/MS. The peak area response ratio to internal standard (PARR) of the compounds at 5, 15, 30, 45 minutes was compared to the PARR at time 0 to determine the percent of test compound remaining at each time point. Half-lives were calculated using Excel software, fitting to a single-phase exponential decay equation.
# Menin-MLL1 = biological target: T1, Menin-MLL1 (Homo sapiens, UniProt O00255); assay: Menin-MLL1 inhibition assay (fluorescence polarization, Menin protein + FAM-MLL peptide); type: binding; settings: Menin (2-610) isoform 2, FAM-labelled MLL peptide, mP readout; read-out: Biochemical assay Menin-MLL1 IC50
# T1 construct: Menin (2-610) isform2; purchased ChemPartner 2020111101
# T1 sequence (O00255 2-610): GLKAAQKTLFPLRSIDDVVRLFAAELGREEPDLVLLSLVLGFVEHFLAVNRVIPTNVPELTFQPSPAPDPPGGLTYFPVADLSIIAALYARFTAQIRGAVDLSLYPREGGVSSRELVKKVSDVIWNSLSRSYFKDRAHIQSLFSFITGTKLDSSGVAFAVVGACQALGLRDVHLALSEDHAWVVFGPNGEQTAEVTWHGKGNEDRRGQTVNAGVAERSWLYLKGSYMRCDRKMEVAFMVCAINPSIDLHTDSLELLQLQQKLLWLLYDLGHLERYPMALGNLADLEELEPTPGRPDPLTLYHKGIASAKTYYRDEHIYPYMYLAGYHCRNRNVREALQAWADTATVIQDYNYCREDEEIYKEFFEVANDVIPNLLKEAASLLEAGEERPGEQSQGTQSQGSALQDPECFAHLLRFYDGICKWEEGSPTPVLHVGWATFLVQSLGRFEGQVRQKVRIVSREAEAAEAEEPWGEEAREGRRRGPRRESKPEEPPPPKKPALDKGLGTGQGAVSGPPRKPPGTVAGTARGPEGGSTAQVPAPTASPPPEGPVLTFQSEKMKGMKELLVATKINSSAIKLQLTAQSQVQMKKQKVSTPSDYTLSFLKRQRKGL
# Method: 1× assay bu9ffer (Tris 7.5 50 mM, NaCl 50 mM, DTT 1 mM, Tween-20 0.01%) was prepared and test compounds solution (10 mM in DMSO, Sigma, Cat. No. 34869) were transferred to assay plate (384-well plate, Perkin Elmer, Cat. No. 6007279) by Echo. The final fraction of DMSO is 1%. 20 nM of Menin protein (Menin (2-610) isform2, ChemPartner, Cat. No. 2020111101) in 1× assay buffer was added to prepare 2× enzyme solution. Then 10 nM of MLL-peptide (Ac-SRWRFPARPGTGRR-Ahx-Ahx-K(FAM)-NH2, GL Biochem (Shanghai)), Cat. No. 833831/202009220104) in 1× assay buffer was added to prepare 2× substrate solution. 10 μL of 2× enzyme solution was transferred to assay plate or 10 μL of 1× assay buffer for low control group. 10 μL of 2× substrate solution was added to each well to start reaction. mP data on Envision (Ex480/Em535(s), Em535(p)) was collected.
# Compound potencies were determined by first calculating % inhibition at each compound concentration according to equation 1:
# Inhibition %=(Max−Signal)/(Max−Min)*100 (Equation 1)
# Y=Bottom+(Top-Bottom)/(1+(IC50/X)[…]), where Y is % inhibition and X is compound concentration (Equation 2)
# HL-60 cells = assay: Cell proliferation assay (CellTiter-Glo), HL-60 control line; type: cell-based, human; settings: Homo sapiens, 96 h, 4 days incubation; for IC50: HL-60 control line (MLL wildtype), read-out: Cell antiproliferation assay HL-60 IC50; for inhibition at 10 µM: HL-60 control line, read-out: HL-60 (Pct of inhibition at 10 μM)
# Method: as §1
# MOLM13 cells = assay: Cell proliferation assay (CellTiter-Glo), MOLM13; type: cell-based, human; settings: Homo sapiens, MOLM-13, 288 h; MOLM13 (MLL-AF9), 12 days incubation; read-out: Cell antiproliferation assay MOLM13 IC50
# Method: as §1
# OCI-AML3 cells = assay: Cell proliferation assay (CellTiter-Glo), OCI-AML3; type: cell-based, human; settings: Homo sapiens, OCI-AML-3, 120 h; OCI-AML3 (NPM1c mutation), 5 days incubation; read-out: Cell antiproliferation assay OCI-AML3 IC50
# Method: as §1
Structure (SMILES),IC50 (MV-4-11 cells) [nM],half-life at 1 μM [1] [h],IC50 (Menin-MLL1) [nM],IC50 (HL-60 cells) [nM],inhibition at 10 µM (HL-60 cells) [%],IC50 (MOLM13 cells) [nM],IC50 (OCI-AML3 cells) [nM]
CCN(C(=O)c1cc(F)ccc1Oc1cncnc1N1CC2(CCN(C(=O)[C@]3(C)CCCN3)CC2)C1)C(C)C [Example 22],134,1.53,4.9,,,,
CCN(C(=O)c1cc(F)ccc1Oc1cncnc1N1CC2(CCN(C(=O)[C@H]3NC[C@@H]4C[C@@H]43)CC2)C1)C(C)C [Example 34],18,,4.1,> 10000,-12.2,,
CCN(C(=O)c1cc(F)ccc1Oc1cncnc1N1CC2(CN(C(=O)[C@@H]3C[C@@H](F)CN3)C2)C1)C(C)C [Example 38],69,1,3.3,,,,
CCN(C(=O)c1cc(F)ccc1Oc1cncnc1N1CC2(CCN(C(=O)[C@H]3NCC[C@@H]3C)CC2)C1)C(C)C [Example 41],7.7,,3.6,> 10000,-22.2,23.7,31.4
CCN(C(=O)c1cc(F)ccc1Oc1cncnc1N1CC2(CCN(C(=O)[C@@H]3C[C@@H](C)CN3)CC2)C1)C(C)C [Example 47],15.9,,3.7,> 10000,-10.6,,
CC(C)N(CCO)C(=O)c1cc(F)ccc1Oc1cncnc1N1CC2(CCN(C(=O)[C@@H]3C[C@@H](F)CN3)CC2)C1 [Example 49],57.3,,3.6,> 10000,-8.4,,
CC(C)N(C(=O)c1cc(F)ccc1Oc1nncnc1N1CC2(CCN(C(=O)[C@@H]3C[C@@H](F)CN3)CC2)C1)C(C)C [Example 56],16.8,,3.7,> 10000,-12.2,68.3,132
CC(C)n1ncc(Cl)c1-c1cc(F)ccc1Oc1cncnc1N1CC2(CCN(C(=O)[C@@H]3C[C@@H](F)CN3)CC2)C1 [Example 58],27.1,,3.5,> 10000,-4.5,,
CC(C)N(C(=O)c1cc(F)ccc1Oc1nncnc1N1CC2(CCN(C(=O)[C@H]3NCC[C@@H]3C)CC2)C1)C(C)C [Example 64],9.6,,1.9,> 10000,11.2,20.2,
N#Cc1ccc(-c2cc(F)ccc2Oc2nncnc2N2CC3(CCN(C(=O)[C@@H]4C[C@@H](F)CN4)CC3)C2)c(C2CC2)c1 [Example 67],20.5,,2.8,> 10000,23.8,61.1,
CC[C@H]1CCN[C@@H]1C(=O)N1CCC2(CC1)CN(c1ncnnc1Oc1ccc(F)cc1C(=O)N(CC)C(C)C)C2 [Example 70],9.5,,4.6,> 10000,1,49.5,52.7
N#Cc1ccc(-c2cc(F)ccc2Oc2nncnc2N2CC3(CCN(C(=O)[C@H]4NC[C@@H]5C[C@@H]54)CC3)C2)c(C2CC2)c1 [Example 78],6.5,,2.9,> 10000,40,14.2,28.1
C[C@H]1CCN[C@@H]1C(=O)N1CCC2(CC1)CN(c1ncnnc1Oc1ccc(F)cc1-c1ccc(C#N)cc1C1CC1)C2 [Example 79],5.9,,9.9,> 10000,33.8,15.6,25.9
O=C([C@H]1NC[C@@H]2C[C@@H]21)N1CCC2(CC1)CN(c1ncnnc1Oc1ccc(F)cc1-c1cncnc1C1CC1)C2 [Example 80],39,,4.3,> 10000,0,,
CC1(C)[C@@H]2[C@@H](C(=O)N3CCC4(CC3)CN(c3ncnnc3Oc3ccc(F)cc3-c3cncnc3C3CC3)C4)NC[C@@H]21 [Example 81],7.7,,3.9,> 10000,21.4,16.6,25.5
CCN(C(=O)c1cc(F)ccc1Oc1nncnc1N1CC2(CCN(C(=O)[C@H]3NCc4ccccc43)CC2)C1)C(C)C [Example 85],76.7,,5.5,> 10000,-2.8,,
CC[C@@H]1[C@@H](C(=O)N2CCC3(CC2)CN(c2ncnnc2Oc2ccc(F)cc2C(=O)N(CC)C(C)C)C3)NC[C@@H]1F [Example 86],76,,3.6,> 10000,10.8,199,282
CCN(C(=O)c1cc(F)ccc1Oc1nncnc1N1CC2(CCN(C(=O)[C@H]3NCC[C@@H]3CF)CC2)C1)C(C)C [Example 88],24.2,,3.2,> 10000,11.4,68.6,102
N#Cc1ccc(-c2cc(F)ccc2Oc2nncnc2N2CC3(CCN(C(=O)[C@H]4NC[C@@H]5CCC[C@@H]54)CC3)C2)c(C2CC2)n1 [Example 90],2.6,,2.8,,,6.1,
COc1ccc(-c2cc(F)ccc2Oc2nncnc2N2CC3(CCN(C(=O)[C@H]4NC[C@@H]5CCC[C@@H]54)CC3)C2)c(C2CC2)n1 [Example 107],2.4,,2.4,,,,
